Test results taken from patent publication US12357617B2, “Discovery of novel anti-infectives for gram negative pathogens” (priority 2018, dated 2025).
In brackets after ≈: the same amount, converted by molar mass. Entries after “also recorded” stand apart in the source; their conditions may differ. Like-named read-outs stand apart in the source and are kept apart here.

Assays:
[1] = tested on: T6SS-5 secretion activity (Hcp), Bp 1026b; format: cell-based, Burkholderia pseudomallei
HEK293 cells = test: CellTiter-Glo cell viability (cellular toxicity) assay; settings: for TD = toxic dose (dose at which HEK293 cell growth is significantly affected): Celltitre-Glo, HEK293 cells; for effect on HEK293 cell viability: concentrations 10-fold higher than the IC100, ATP-depletion assay
Bt E264 = format: cell-based, Burkholderia thailandensis
Bp 1026b [2] = format: cell-based, Burkholderia pseudomallei
[3] = reference 37; cited from earlier work
Bt [4] = test: microbe, parasite or virus in culture; format: cell-based, Burkholderia thailandensis; settings: for MIC: Burkholderia thailandensis, read-out: in vitro MIC
Bt [5] = format: cell-based, Burkholderia thailandensis
[6] = tested on: T6SS-5 secretion activity (Hcp), Bt E264; format: cell-based, Burkholderia thailandensis
Bp 1026b [7] = format: in vivo, BALB/c mice
[8] = tested on: virulence loci (virG, bsaM, bimA, vgrG) of Bt E264; format: cell-based, Burkholderia thailandensis
Bm 23344 = format: cell-based, Burkholderia mallei
Bp MSHR305 = format: cell-based, Burkholderia pseudomallei
Bt [9] = format: cell-based, Burkholderia thailandensis; remark: listed apart in the source
[10] = tested on: S. aureus resistant isolate 2; test: MIC by broth microdilution, S. aureus resistant isolate 2; format: cell-based; settings: Staphylococcus aureus
E. coli DNA gyrase = target: T1, E. coli DNA gyrase (Escherichia coli, UniProt P0AES4+P0AES6); test: E. coli DNA gyrase negative supercoiling assay; format: biochemical; settings: 100 uM or 500 uM, agarose gel
T1 construct: purchased New England Biolabs

[11] = tested on: E. coli resistant isolate 2; test: MIC by broth microdilution, E. coli resistant isolate 2; format: cell-based; settings: Escherichia coli; E. coli resistant isolate 2 (Cip-resistant clinical isolate)
[12] = tested on: P. aeruginosa resistant isolate 1; test: MIC by broth microdilution, P. aeruginosa resistant isolate 1; format: cell-based; settings: Pseudomonas aeruginosa
Bp82.270 (BpeEF-OprC+) = test: microbe, parasite or virus in culture; format: cell-based; settings: Burkholderia pseudomallei
Bp82.285 (BpeEF-OprC+) = test: microbe, parasite or virus in culture; format: cell-based; settings: Burkholderia pseudomallei
Bp82.284 (BpeEF-OprC+) = test: microbe, parasite or virus in culture; format: cell-based; settings: Burkholderia pseudomallei
Bp82 (BpeEF-OprC-) = test: microbe, parasite or virus in culture; format: cell-based; settings: Burkholderia pseudomallei
[13] = tested on: P. aueruginosa ATCC 27853; test: MIC by broth microdilution, P. aeruginosa ATCC 27853; format: cell-based, Pseudomonas aeruginosa; settings: for MIC: Pseudomonas aeruginosa, ATCC27853
[14] = tested on: S. aureus resistant isolate 1; test: MIC by broth microdilution, S. aureus resistant isolate 1; format: cell-based; settings: Staphylococcus aureus
S. aureus ATCC 29213 = test: MIC by broth microdilution, S. aureus ATCC 29213; format: cell-based; settings: Staphylococcus aureus, ATCC29213
E. coli 25922 = test: MIC by broth microdilution, E. coli 25922; format: cell-based, Escherichia coli; settings: for MIC: Escherichia coli, E. coli 25922, broth microdilution
[15] = tested on: P. aeruginosa resistant isolate 2; test: MIC by broth microdilution, P. aeruginosa resistant isolate 2; format: cell-based; settings: Pseudomonas aeruginosa
[16] = tested on: E. coli resistant isolate 1; test: MIC by broth microdilution, E. coli resistant isolate 1; format: cell-based; settings: Escherichia coli; E. coli resistant isolate 1 (Cip-resistant clinical isolate)

T1 sequence (P0AES4 whole entry, one chain of several): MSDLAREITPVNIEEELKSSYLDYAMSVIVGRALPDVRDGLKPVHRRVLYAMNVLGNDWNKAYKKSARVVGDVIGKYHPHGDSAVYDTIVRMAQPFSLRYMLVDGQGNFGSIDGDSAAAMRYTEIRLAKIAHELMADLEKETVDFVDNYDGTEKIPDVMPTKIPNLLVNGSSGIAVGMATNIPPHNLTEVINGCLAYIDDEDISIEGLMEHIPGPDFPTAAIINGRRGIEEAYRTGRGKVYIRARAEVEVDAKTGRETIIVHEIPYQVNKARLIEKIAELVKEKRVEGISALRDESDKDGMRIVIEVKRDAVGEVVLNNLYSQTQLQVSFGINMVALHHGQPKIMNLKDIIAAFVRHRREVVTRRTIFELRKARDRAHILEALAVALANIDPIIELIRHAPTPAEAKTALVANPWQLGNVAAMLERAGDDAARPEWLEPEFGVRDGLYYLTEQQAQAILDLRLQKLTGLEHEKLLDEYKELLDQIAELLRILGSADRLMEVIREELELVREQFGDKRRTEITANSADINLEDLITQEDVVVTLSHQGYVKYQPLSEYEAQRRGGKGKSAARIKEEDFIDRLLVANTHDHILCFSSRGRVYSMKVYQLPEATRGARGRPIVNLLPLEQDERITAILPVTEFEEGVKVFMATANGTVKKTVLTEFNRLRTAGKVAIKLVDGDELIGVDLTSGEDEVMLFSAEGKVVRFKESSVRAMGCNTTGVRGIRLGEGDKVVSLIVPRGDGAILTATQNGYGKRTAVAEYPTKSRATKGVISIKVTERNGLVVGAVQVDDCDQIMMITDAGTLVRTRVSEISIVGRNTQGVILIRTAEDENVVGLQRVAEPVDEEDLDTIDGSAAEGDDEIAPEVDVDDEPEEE

Nc1nc(=O)[nH]cc1F [5-FC, flucytosine]
expression of Hcp (pellet) [1]: does not affect expression of Hcp | secretion of Hcp (supernatant) [1]: inhibits secretion of Hcp | TD = toxic dose (dose at which HEK293 cell growth is significantly affected) (HEK293 cells): >50 µM | effect on HEK293 cell viability (HEK293 cells): no effect on cell viability | inhibition of plaque formation by Bt E264 (screen and validation) (Bt E264): inhibitors; also recorded: activity against Bp and Bt | intercellular spread by time of addition (Bt E264): robustly inhibits intercellular spread irrespective of time of addition | plaque formation by Bt (Bt E264): completely inhibits plaque formation; also recorded: completely abolished plaque formation | plaque formation by Bt at increasing concentrations (Bt E264): inhibits plaque formation | ED = effective dose (IC100) against Bp (Bp 1026b [2]): 3.1 µM | inhibition of plaque formation by Bp 1026b (validation) (Bp 1026b [2]): activity against Bp and Bt | plaque formation by Bp at increasing concentrations (Bp 1026b [2]): inhibits plaque formation | bioavailability [3]: good bioavailability | in vitro growth of Bt (Bt [4]): does not significantly inhibit in vitro growth | actin-mediated intracellular motility (bacteria with actin tails) (Bt [5]): does not inhibit actin-mediated intracellular motility | expression of Hcp (pellet) [6]: does not affect expression of Hcp | secretion of Hcp (supernatant) [6]: inhibits secretion of Hcp | bacterial loads in liver and spleen compared to lung of surviving mice (Bp 1026b [7]; mouse, in vivo): low or undetectable bacterial loads | bacterial loads in lungs, livers, and spleens (Bp 1026b [7]; mouse, in vivo): decreased, although to a lesser extent | histopathology: inflammation in pulmonary, hepatic, and splenic tissue (Bp 1026b [7]; mouse, in vivo): significantly reduced inflammation | mice surviving the entire study duration (10 days) (Bp 1026b [7]; mouse, in vivo): 12% | mice surviving to five days post-infection (Bp 1026b [7]; mouse, in vivo): 36.7% | overall efficacy compared to ceftazidime (Bp 1026b [7]; mouse, in vivo): superiority to ceftazidime | reduction in the expression of virG, bsaM, bimA, and vgrG [8]: ≤ 4 fold | inhibition of plaque formation by Bm 23344 (validation) (Bm 23344): ineffective | plaque formation by Bp MSHR305 (Bp MSHR305): effective at ablating plaque formation | decrease in peak intracellular bacterial numbers (Bt [9]): 3 fold | intracellular replication of Bt (Bt [9]): delays and decreases, but does not eliminate | intracellular replication of a fusion defective mutant (ΔvgrG) (Bt [9]): does not inhibit the intracellular replication

O=c1[nH]cc(F)c(=O)[nH]1 [5-FU, 5-fluorouracil]
plaque formation by Bt (Bt E264; 25 μM): completely abolished plaque formation

CCn1cc(C(=O)O)c(=O)c2cc(F)c(N3CCOCC3)cc21 [BFX, 1-Ethyl-6-fluoro-7-(4-morpholinyl)-4-oxo-1,4-dihydro-3-quinolinecarboxylic acid]
TD = toxic dose (dose at which HEK293 cell growth is significantly affected) (HEK293 cells): >50 µM | effect on HEK293 cell viability (HEK293 cells): no effect on cell viability | MIC [10]: > 7 µg/mL | negative supercoiling activity of E. coli DNA gyrase (E. coli DNA gyrase): inhibits the negative supercoiling activity | MIC [11]: > 7 µg/mL | MIC [12]: > 7 µg/mL | MIC (Bp82.270 (BpeEF-OprC+)): 32 µg/mL (≈ 99.9 µM) | fold lower concentration than Cip at which plaque formation by Bt is prevented (Bt E264): 8 fold | inhibition of plaque formation / intercellular spread by Bt E264 (Bt E264): near-complete inhibition | inhibition of plaque formation by Bt E264 (screen and validation) (Bt E264): consistently inhibit plaque formation | ED = effective dose (IC100) against Bp (Bp 1026b [2]): 0.1 µM | inhibition of plaque formation / intercellular spread by Bp 1026b (Bp 1026b [2]): near-complete inhibition | inhibition of plaque formation by Bp 1026b (validation) (Bp 1026b [2]): consistently inhibit plaque formation | MIC (Bp82.285 (BpeEF-OprC+)): 32 µg/mL (≈ 99.9 µM) | MIC (Bp82.284 (BpeEF-OprC+)): 32 µg/mL (≈ 99.9 µM) | MIC (Bp82 (BpeEF-OprC-)): 2 µg/mL (≈ 6.24 µM) | dose needed to inhibit growth in laboratory medium (Bt [4]): 5 µM | in vitro growth of Bt (Bt [4]): does not inhibit in vitro growth | MIC (Bt [4]): 2.6 µg/mL (≈ 8.12 µM) | growth of Pseudomonas aeruginosa ATCC 27853 (in words) [13]: inhibitory for the growth | MIC [13]: 4 µg/mL (≈ 12.5 µM) | MIC [14]: > 7 µg/mL | MIC (S. aureus ATCC 29213): > 7 µg/mL | growth of E. coli ATCC 25922 (in words) (E. coli 25922): inhibitory for the growth | MIC (E. coli 25922): 4 µg/mL (≈ 12.5 µM) | MIC [15]: > 7 µg/mL | bacterial loads in liver and spleen compared to lung of surviving mice (Bp 1026b [7]; 10 days): low or undetectable bacterial loads | bacterial loads in lungs, livers, and spleens (Bp 1026b [7]; mouse, in vivo): decreased relative to placebo and ceftazidime-treated controls | histopathology: inflammation in pulmonary, hepatic, and splenic tissue (Bp 1026b [7]; mouse, in vivo): nearly undetectable inflammation | overall efficacy compared to ceftazidime (Bp 1026b [7]; mouse, in vivo): superiority to ceftazidime | mice surviving the entire study duration (10 days) (Bp 1026b [7]; n=8): 63% | mice surviving to five days post-infection (Bp 1026b [7]; n=8): 100% | inhibition of plaque formation by Bm 23344 (validation) (Bm 23344): consistently inhibit plaque formation | plaque formation by Bp MSHR305 (Bp MSHR305; 5 μM): effective at ablating plaque formation | intracellular replication of Bt (Bt [9]): inhibits intracellular replication | MIC [16]: > 7 µg/mL

O=C(O)c1cn(C2CC2)c2cc(N3CCNCC3)c(F)cc2c1=O [Cip, ciprofloxacin]
MIC [10]: > 7 µg/mL | negative supercoiling activity of E. coli DNA gyrase (E. coli DNA gyrase): inhibits the negative supercoiling activity | MIC [12]: > 7 µg/mL | MIC (Bp82.270 (BpeEF-OprC+)): 16 µg/mL (≈ 48.3 µM) | MIC (Bp82.285 (BpeEF-OprC+)): 16 to 32 µg/mL (≈ 48.3 to 96.6 µM) | MIC (Bp82.284 (BpeEF-OprC+)): 16 µg/mL (≈ 48.3 µM) | MIC (Bp82 (BpeEF-OprC-)): 1 µg/mL (≈ 3.02 µM) | MIC (Bt [4]): 1.3 µg/mL (≈ 3.92 µM) | MIC [13]: 4 µg/mL (≈ 12.1 µM) | MIC [14]: > 7 µg/mL | MIC (S. aureus ATCC 29213): > 7 µg/mL | MIC (E. coli 25922): 2 µg/mL (≈ 6.04 µM) | MIC [15]: > 7 µg/mL

O=c1[nH]c(=O)n([C@@H]2O[C@H](CO)[C@@H](O)[C@H]2O)cc1F [F-UR, Fluorouridine]
plaque formation by Bt (Bt E264): minimally inhibitory; also recorded: fully inhibitory

O=c1[nH]c(=O)n([C@H]2C[C@H](O)[C@@H](CO)O2)cc1F [F-UdR, fluorodeoxyuridine]
plaque formation by Bt (Bt E264): lack of inhibitory activity

C[C@H]1COc2c(N3CCN(C)CC3)c(F)cc3c(=O)c(C(=O)O)cn1c23 [Levo, levofloxacin]
MIC [10]: > 7 µg/mL | MIC [11]: > 7 µg/mL | MIC [12]: > 7 µg/mL | MIC [13]: 5 µg/mL (≈ 13.8 µM) | MIC [14]: > 7 µg/mL | MIC (S. aureus ATCC 29213): > 7 µg/mL | MIC (E. coli 25922): 4 µg/mL (≈ 11.1 µM) | MIC [15]: > 7 µg/mL | MIC [16]: > 7 µg/mL

C[C@@H]1CC[C@H]2[C@@H](C)C(=O)O[C@@H]3O[C@@]4(C)CC[C@@H]1[C@]32OO4 [artemisinin]
inhibition of plaque formation by Bm 23344 (validation) (Bm 23344): specific for Bm only

CC(C)(O/N=C(\C(=O)N[C@@H]1C(=O)N2C(C(=O)[O-])=C(C[n+]3ccccc3)CS[C@H]12)c1csc(N)n1)C(=O)O [ceftazidime]
time by which all animals succumbed to infection (Bp 1026b [7]; mouse, in vivo): by five days

CC[C@@]1([C@@H]2O[C@@H]([C@H]3O[C@@](O)(CO)[C@H](C)C[C@@H]3C)C[C@@H]2C)CC[C@H]([C@]2(C)CC[C@]3(C[C@H](O)[C@@H](C)[C@@H]([C@@H](C)[C@@H](OC)[C@H](C)C(=O)O)O3)O2)O1 [monensin]
inhibition of plaque formation by Bm 23344 (validation) (Bm 23344): specific for Bm only

COc1cc(Cc2cnc(N)nc2N)cc(OC)c1OC [trimethoprim]
inhibition of plaque formation by Bt E264 (screen and validation) (Bt E264): inhibitors
